Measurements from US20240270821A1, “GIP/GLP1/GCG TRI-RECEPTOR AGONISTS AND USES THEREOF” (priority 2023, published 2024).
Like-named read-outs stand apart in the source and are kept apart here. Starred links: 1 amine or outer side, 2 acyl side, 3 side chain; linkers in the order of their positions; H or OH if unused. Non-standard residues stand in square brackets, D forms with d. Residues, ends and D or L forms follow the SMILES beside them. Groups on a side chain read outwards from the residue. No end group written: not given here. *: point of attachment. C20 diacid = O=C(O)CCCCCCCCCCCCCCCCCCC(=O)*; C18 diacid = O=C(O)CCCCCCCCCCCCCCCCC(=O)*; αMePhe(2-F) = C[C@](N)(Cc1ccccc1F)C(=O)O; γGlu = O=C(O)[C@H](CCC(=O)[*:2])N[*:1]; αMe4Pal = C[C@](N)(Cc1ccncc1)C(=O)O; αMeY = C[C@](N)(Cc1ccc(O)cc1)C(=O)O; 4Pal = N[C@@H](Cc1ccncc1)C(=O)O; αMeL = CC(C)C[C@](C)(N)C(=O)O; αMeS = C[C@](N)(CO)C(=O)O; Orn = NCCC[C@H](N)C(=O)O; AEEA = NCCOCCOCC(=O)O; Aib = CC(C)(N)C(=O)O

Tests used:
Format in all cases: cell-based
[1] = target: T1, hGLP-1R (Homo sapiens, UniProt P43220); experiment: Functional cAMP activation in the presence of 0.1% casein (no HSA); conditions: read-out: Relative cAMP EC50, hGLP-1R;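 further: intracellular cAMP rise after 30 min at 37 °C read by HTRF, normalized between buffer only (0%) and maximal control ligand (100%), four-parameter variable-slope fit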
T1 sequence (P43220 24-463): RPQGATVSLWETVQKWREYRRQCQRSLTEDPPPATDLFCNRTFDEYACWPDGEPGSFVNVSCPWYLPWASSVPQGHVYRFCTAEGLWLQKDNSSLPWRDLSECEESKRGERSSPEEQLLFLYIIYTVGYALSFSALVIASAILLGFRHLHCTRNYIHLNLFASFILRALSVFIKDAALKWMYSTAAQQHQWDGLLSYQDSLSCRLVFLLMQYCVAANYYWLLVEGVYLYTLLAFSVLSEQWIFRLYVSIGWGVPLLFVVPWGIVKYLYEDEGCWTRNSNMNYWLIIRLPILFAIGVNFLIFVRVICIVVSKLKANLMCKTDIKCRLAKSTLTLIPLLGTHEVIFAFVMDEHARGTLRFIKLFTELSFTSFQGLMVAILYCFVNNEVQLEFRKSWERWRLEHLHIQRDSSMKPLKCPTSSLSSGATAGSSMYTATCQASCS

[2] = target: hGcgR (Homo sapiens, UniProt P47871); experiment: as above; conditions: read-out: Relative cAMP EC50, hGcgR;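 further: intracellular cAMP rise after 30 min at 37 °C, read by HTRF against a cAMP standard curve, scaled from buffer only (0%) to maximal control ligand response (100%)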
hGcgR, sequence (P47871 26-477): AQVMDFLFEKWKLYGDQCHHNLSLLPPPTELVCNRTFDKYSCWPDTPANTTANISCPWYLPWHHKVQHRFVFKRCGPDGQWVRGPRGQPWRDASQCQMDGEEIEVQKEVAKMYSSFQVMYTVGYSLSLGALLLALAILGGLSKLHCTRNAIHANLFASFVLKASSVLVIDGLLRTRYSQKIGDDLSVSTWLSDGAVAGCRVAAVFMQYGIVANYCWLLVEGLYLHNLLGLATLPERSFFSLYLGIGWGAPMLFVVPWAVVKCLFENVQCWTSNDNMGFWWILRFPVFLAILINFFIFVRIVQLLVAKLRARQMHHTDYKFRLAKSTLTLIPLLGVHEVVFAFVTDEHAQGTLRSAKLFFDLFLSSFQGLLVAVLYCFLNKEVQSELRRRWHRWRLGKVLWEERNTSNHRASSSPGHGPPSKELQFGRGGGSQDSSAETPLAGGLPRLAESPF

[3] = target: human GcgR (Homo sapiens, UniProt P47871); experiment: Functional cAMP activity in the presence of 1% HSA; conditions: read-out: cAMP Rel EC50, hGcgR
human GcgR, sequence (P47871 26-477): as above

[4] = target: T1, hGLP-1R; experiment: Functional cAMP activity in the presence of 1% HSA; conditions: read-out: cAMP Rel EC50, hGLP-1R
[5] = target: T2, hGIPR (Homo sapiens, UniProt P48546); experiment: Functional cAMP activation in the presence of 0.1% casein (no HSA); conditions: read-out: Relative cAMP EC50, hGIPR;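 further: intracellular cAMP rise after 30 min at 37 °C read by HTRF against a standard curve, scaled between buffer alone (0%) and top control ligand concentration (100%), four-parameter fit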
T2 sequence (P48546 22-466): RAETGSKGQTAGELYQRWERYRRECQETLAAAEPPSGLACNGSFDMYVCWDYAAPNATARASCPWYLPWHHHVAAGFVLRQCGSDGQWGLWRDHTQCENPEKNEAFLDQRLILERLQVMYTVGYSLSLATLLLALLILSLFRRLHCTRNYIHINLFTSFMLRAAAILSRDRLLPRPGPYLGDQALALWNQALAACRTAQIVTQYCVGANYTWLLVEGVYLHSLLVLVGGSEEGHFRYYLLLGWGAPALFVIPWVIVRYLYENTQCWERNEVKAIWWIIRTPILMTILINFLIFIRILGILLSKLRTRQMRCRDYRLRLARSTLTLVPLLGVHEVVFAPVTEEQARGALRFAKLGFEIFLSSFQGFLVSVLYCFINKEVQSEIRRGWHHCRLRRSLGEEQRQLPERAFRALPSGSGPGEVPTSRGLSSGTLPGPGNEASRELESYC

[6] = target: T2, hGIPR; experiment: Functional cAMP activity in the presence of 1% HSA; conditions: read-out: cAMP Rel EC50, hGIPR
[7] = in the presence of 0.1% casein (no HSA), geometric mean
[8] = 0.1% casein, no HSA, geometric mean

Row | Compound | EC50 [1, 7] [nM] | EC50 [2, 7] [nM] | EC50 [3] [nM] | EC50 [4] [nM] | EC50 [5, 7] [nM] | EC50 [6] [nM] | EC50 [1] [nM] | EC50 [2] [nM] | EC50 [5] [nM] | EC50 [1, 8] [nM] | EC50 [2, 8] [nM] | EC50 [5, 8] [nM]
1 | CC[C@H](C)[C@H](NC(=O)[C@H](Cc1ccccc1)NC(=O)[C@H](C)NC(=O)C(C)(C)NC(=O)[C@H](CCC(N)=O)NC(=O)[C@H](C)NC(=O)[C@H](CCCCNC(=O)COCCOCCNC(=O)CC[C@H](NC(=O)CCCCCCCCCCCCCCCCCCC(=O)O)C(=O)O)NC(=O)[C@H](CCCCN)NC(=O)[C@H](CC(=O)O)NC(=O)[C@H](CC(C)C)NC(=O)[C@](C)(CC(C)C)NC(=O)[C@H](CCCN)NC(=O)[C@H](CO)NC(=O)[C@H](Cc1ccccc1)NC(=O)[C@H](CC(=O)O)NC(=O)[C@H](CO)NC(=O)[C@@H](NC(=O)[C@H](Cc1ccccc1)NC(=O)[C@@H](NC(=O)CNC(=O)[C@H](CCC(N)=O)NC(=O)C(C)(C)NC(=O)[C@@H](N)Cc1ccc(O)cc1)[C@@H](C)O)[C@@H](C)O)C(=O)N[C@@H](CCC(=O)O)C(=O)N[C@@H](Cc1c[nH]c2ccccc12)C(=O)N[C@@H](CC(C)C)C(=O)N[C@@H](CC(C)C)C(=O)N[C@@H](CCC(=O)O)C(=O)NCC(=O)NCC(=O)N1CCC[C@H]1C(=O)N[C@@H](CO)C(=O)N[C@@H](CO)C(=O)NCC(=O)N[C@@H](C)C(=O)N1CCC[C@H]1C(=O)N1CCC[C@H]1C(=O)N1CCC[C@H]1C(=O)N[C@@H](CO)C(=O)NCC(=O)N[C@@H](CCC(=O)O)C(N)=O [Example 100] | 3.21 | 13.1 | 2390 | 1190 | 0.293 | 77.2 |  |  |  |  |  | 
2 | Y[Aib]QGTFTSD[4Pal]SQ[αMeL]LDKK([dE-γGlu-dE-C18 diacid])AQ[αMe4Pal]AFIEYLIE[Aib]GPSSGAPPPSGSEE-NH2 [Example 931] | 11.3 | 12.2 | 2300 | 878 | 0.256 | 20.8 |  |  |  |  |  | 
3 | H-Y[Aib]QGTFTSD[4Pal]S[Orn][αMeL]LDKK([γGlu-γGlu-C18 diacid])AQ[αMe4Pal]AFIE[αMe4Pal]LIE[Aib]GPSSGEPPPSGSE-NH2 [Example 990] | 5.78 | 2.47 | 276 | 557 | 0.115 | 9.87 |  |  |  |  |  | 
4 | H-Y[Aib]QGTFTSD[4Pal]SQ[αMeL]LD[Orn]K([γGlu-γGlu-C18 diacid])AQ[αMe4Pal]AFIEYLIAGGPSSGEPPPSGSE-NH2 [Example 1008] | 1.09 | 7.47 | 1010 | 126 | 0.14 | 15.2 |  |  |  |  |  | 
5 | H-Y[Aib]QGT[αMePhe(2-F)]TSD[4Pal]SI[αMeL]LD[Orn]K([AEEA-γGlu-C18 diacid])AQ[αMe4Pal]EFI[dE][αMeY]LIEGGPSSGAPPPSGS-NH2 [Example 640] |  |  | 730 | 27.8 |  | 0.591 | 0.288 | 9.5 | 0.00696 |  |  | 
6 | Y[Aib]QGT[αMePhe(2-F)]TSD[4Pal][αMeS]I[αMeL]LD[Orn]K([γGlu-γGlu-C18 diacid])AQ[αMe4Pal]EFI[dE][αMeY]LIEGGPSSGAPPPSGE-NH2 [Example 1150] | 0.278 | 1.17 | 161 | 30 | 0.0069 | 0.583 |  |  |  |  |  | 
7 | H-Y[Aib]QGTFTSDFS[Orn][αMeL]LDKK([AEEA-γGlu-C18 diacid])AQ[Aib]AFIEYLLE[dA]GHSSGAPPPSGE-NH2 [Example 207] | 4.36 | 4.24 | 770 | 225 | 0.321 | 15.2 |  |  |  |  |  | 
8 | H-Y[Aib]QGT[αMePhe(2-F)]TSD[4Pal]SILLDKK([γGlu-γGlu-C18 diacid])AQ[Aib]AFIEYLEEGGPSSGAPPPSGTE-NH2 [Example 509] |  |  | 617 | 69.2 |  | 5.01 | 0.65 | 4.66 | 0.0557 |  |  | 
9 | CC[C@H](C)[C@H](NC(=O)[C@H](CC(C)C)NC(=O)[C@H](Cc1ccc(O)cc1)NC(=O)[C@@H](CCC(=O)O)NC(=O)[C@@H](NC(=O)[C@H](Cc1ccccc1)NC(=O)[C@H](CC(N)=O)NC(=O)C(C)(C)NC(=O)[C@H](CCC(N)=O)NC(=O)[C@H](C)NC(=O)[C@H](CCCCNC(=O)CC[C@H](NC(=O)CC[C@H](NC(=O)CCCCCCCCCCCCCCCCC(=O)O)C(=O)O)C(=O)O)NC(=O)[C@H](CCCN)NC(=O)[C@H](CC(=O)O)NC(=O)[C@H](CC(C)C)NC(=O)[C@](C)(CC(C)C)NC(=O)[C@@H](NC(=O)[C@](C)(CO)NC(=O)[C@H](Cc1ccncc1)NC(=O)[C@H](CC(=O)O)NC(=O)[C@H](CO)NC(=O)[C@@H](NC(=O)[C@](C)(Cc1ccccc1F)NC(=O)[C@@H](NC(=O)CNC(=O)[C@H](CCC(N)=O)NC(=O)C(C)(C)NC(=O)[C@@H](N)Cc1ccc(O)cc1)[C@@H](C)O)[C@@H](C)O)[C@@H](C)CC)[C@@H](C)CC)C(=O)N[C@@H](CCC(=O)O)C(=O)NCC(=O)NCC(=O)N1CCC[C@H]1C(=O)N[C@@H](CO)C(=O)N[C@@H](CO)C(=O)NCC(=O)N[C@@H](CCC(=O)O)C(=O)N1CCC[C@H]1C(=O)N1CCC[C@H]1C(=O)N1CCC[C@H]1C(=O)N[C@@H](CCC(=O)O)C(N)=O [Example 449] (H-Y[Aib]QGT[αMePhe(2-F)]TSD[4Pal][αMeS]I[αMeL]LD[Orn]K([γGlu-γGlu-C18 diacid])AQ[Aib]NFI[dE]YLIEGGPSSGEPPPE-NH2) |  |  | 424 | 18.9 |  | 1.66 | 0.568 | 11.5 | 0.0205 |  |  | 
10 | Y[Aib]QGTFTSD[4Pal]SR[αMeL]LDKK([AEEA-γGlu-C18 diacid])AQ[αMe4Pal]AFIE[αMeY]LIEGGPSSGAPPPSGS-NH2 [Example 843] | 0.874 | 3.41 | 367 | 135 | 0.334 | 32.8 |  |  |  |  |  | 
11 | CC[C@H](C)[C@H](NC(=O)[C@H](Cc1ccccc1)NC(=O)[C@H](C)NC(=O)C(C)(C)NC(=O)[C@H](CCC(N)=O)NC(=O)[C@H](C)NC(=O)[C@H](CCCCNC(=O)COCCOCCNC(=O)CC[C@H](NC(=O)CCCCCCCCCCCCCCCCC(=O)O)C(=O)O)NC(=O)[C@H](CCCCN)NC(=O)[C@H](CC(=O)O)NC(=O)[C@H](CC(C)C)NC(=O)[C@](C)(CC(C)C)NC(=O)[C@@H](NC(=O)[C@H](CO)NC(=O)[C@H](Cc1ccc(O)cc1)NC(=O)[C@H](CC(=O)O)NC(=O)[C@H](CO)NC(=O)[C@@H](NC(=O)[C@](C)(Cc1ccccc1F)NC(=O)[C@@H](NC(=O)CNC(=O)[C@H](CCC(N)=O)NC(=O)C(C)(C)NC(=O)[C@@H](N)Cc1ccc(O)cc1)[C@@H](C)O)[C@@H](C)O)[C@@H](C)CC)C(=O)N[C@@H](CCC(=O)O)C(=O)N[C@@H](Cc1ccc(O)cc1)C(=O)N[C@@H](CC(C)C)C(=O)N[C@@H](CCC(=O)O)C(=O)N[C@@H](CCC(=O)O)C(=O)NCC(=O)NCC(=O)N1CCC[C@H]1C(=O)N[C@@H](CO)C(=O)N[C@@H](CO)C(=O)NCC(=O)N[C@@H](C)C(=O)N1CCC[C@H]1C(=O)N1CCC[C@H]1C(=O)N1CCC[C@H]1C(=O)N[C@@H](CO)C(=O)N[C@@H](CCC(=O)O)C(N)=O [Example 424] (H-Y[Aib]QGT[αMePhe(2-F)]TSDYSI[αMeL]LDKK([AEEA-γGlu-C18 diacid])AQ[Aib]AFIEYLEEGGPSSGAPPPSE-NH2) |  |  | 443 | 29.5 |  | 3.21 | 0.318 | 3.12 | 0.0154 |  |  | 
12 | H-Y[Aib]QGT[αMePhe(2-F)]TSD[4Pal]SI[αMeL]LD[Orn]K([AEEA-γGlu-C18 diacid])AQ[αMe4Pal][Orn]FI[dE][αMeY]LIEGGPSSGEPPPEAE-NH2 [Example 676] |  |  | 208 | 24.4 |  | 1.07 | 0.267 | 2.34 | 0.0106 |  |  | 
13 | H-Y[Aib]QGT[αMePhe(2-F)]TSD[4Pal][αMeS]I[αMeL]LD[Orn]K([AEEA-γGlu-C18 diacid])AQ[αMe4Pal]EFI[dE][αMeY]LIEGGPSSGAPPPEGGGEEE-NH2 [Example 1217] |  |  | 253 | 62.7 |  | 1.06 |  |  |  | 0.751 | 1.98 | 0.0101
14 | H-Y[Aib]QGTFTSDFS[Orn][αMeL]LDKK([AEEA-γGlu-C20 diacid])AQ[Aib]AFIEYLLE[Aib]GPSSGAPPPSEG-NH2 [Example 61] | 2.05 | 3.57 | 1310 | 704 | 0.122 | 55.2 |  |  |  |  |  | 
15 | H-Y[Aib]QGTFTSDFSK[αMeL]LDKK([AEEA-γGlu-C20 diacid])AQ[Aib]AFIEYLLEGGPSSGAPPP[γGlu]EG-NH2 [Example 52] | 5.18 | 5.84 | 1740 | 1250 | 0.449 | 111 |  |  |  |  |  | 
